Laboratory results: patent US7825114B2, “Substituted aminopyrazolopyridines and salts thereof, pharmaceutical compositions comprising same, methods of preparing same and uses of same” (Bayer Schering Pharma AG, priority 2006, dated 2010)
pIC50: −log10 of the molar value.

How the values were obtained:
Tie2 [1] = target: T1, Tie2 (Homo sapiens, UniProt Q02763); experiment: Tie2 ELISA assay (assay 1): cellular Tie2 autophosphorylation; type: cell-based; parameters: expressed in transfected cells; host or cells: CHO (DHFR-deficient), stably transfected; conditions: CHO cells stably transfected with Tie2, stimulated by angiopoietin-2; Tie2 autophosphorylation by sandwich-ELISA; read-out: Tie 2 activity (assay 1)
Experimental: Assay 1: Tie2 ELISA Assay
Cellular activity of compounds of the present invention as inhibitors of Tie2 kinase activity was measured employing a Tie2 ELISA assay as described in the following paragraphs. Herein CHO cell-cultures, which are stably transfected by known techniques with Tie2 using DHFR deficiency as selection marker, are stimulated by angiopoietin-2. The specific autophosphorylation of Tie2 receptors is quantified with a sandwich-ELISA using anti-Tie2 antibodies for catch and anti-phosphotyrosine antibodies coupled to HRP for detection. […]
Target sequence in this assay (Q02763 23-1124): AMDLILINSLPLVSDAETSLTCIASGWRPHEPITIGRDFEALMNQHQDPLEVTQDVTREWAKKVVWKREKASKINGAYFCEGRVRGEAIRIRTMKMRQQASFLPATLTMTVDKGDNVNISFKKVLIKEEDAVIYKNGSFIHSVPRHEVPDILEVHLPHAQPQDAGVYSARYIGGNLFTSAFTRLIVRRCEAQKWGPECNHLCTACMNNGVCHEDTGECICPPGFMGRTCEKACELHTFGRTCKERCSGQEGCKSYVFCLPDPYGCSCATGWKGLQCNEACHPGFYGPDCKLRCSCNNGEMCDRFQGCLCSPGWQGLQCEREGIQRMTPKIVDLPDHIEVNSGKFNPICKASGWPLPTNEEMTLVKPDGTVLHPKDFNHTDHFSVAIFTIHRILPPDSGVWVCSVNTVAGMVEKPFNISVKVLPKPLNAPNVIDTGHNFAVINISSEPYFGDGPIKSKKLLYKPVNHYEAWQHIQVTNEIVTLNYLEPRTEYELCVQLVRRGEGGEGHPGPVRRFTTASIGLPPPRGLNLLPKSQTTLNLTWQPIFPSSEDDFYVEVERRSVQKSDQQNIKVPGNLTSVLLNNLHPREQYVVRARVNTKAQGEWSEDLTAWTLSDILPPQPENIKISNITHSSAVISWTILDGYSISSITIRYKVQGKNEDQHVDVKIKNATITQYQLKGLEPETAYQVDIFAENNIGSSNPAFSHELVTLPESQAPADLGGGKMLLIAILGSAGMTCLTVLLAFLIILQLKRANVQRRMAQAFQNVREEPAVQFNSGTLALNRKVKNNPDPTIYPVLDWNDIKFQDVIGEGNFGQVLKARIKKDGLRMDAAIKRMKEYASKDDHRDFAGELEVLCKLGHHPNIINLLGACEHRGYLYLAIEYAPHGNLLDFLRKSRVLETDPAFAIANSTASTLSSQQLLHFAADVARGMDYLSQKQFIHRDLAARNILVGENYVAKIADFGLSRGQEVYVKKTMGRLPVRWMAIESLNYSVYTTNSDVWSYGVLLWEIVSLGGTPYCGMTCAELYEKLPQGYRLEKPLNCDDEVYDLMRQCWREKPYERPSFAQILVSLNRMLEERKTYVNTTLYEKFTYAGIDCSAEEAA

human c-kit = target: T2, human c-kit (Homo sapiens, UniProt P10721); experiment: cKIT-Kinase HTRF-Assay (assay 4); type: biochemical; conditions: for pIC50: GST-tagged kinase domain of human c-kit, 10 μM ATP; for Selectivity vs. cKit: IC50 assay 4/IC50 assay 2
T2 construct: GST-tagged recombinant kinase domain of the human c-kit; GST; host or cells: SF-9 insect cells
Experimental: Assay 4: cKIT-Kinase HTRF-Assay
c-Kit-inhibitory activity of compounds of the present invention was quantified employing the c-kit HTRF assay as described in the following paragraphs. GST-tagged recombinant kinase domain of the human c-kit expressed in SF-9 cells was used as kinase. As substrate for the kinase reaction biotinylated poly-(Glu,Tyr) (Cis biointernational, France) was used.
c-Kit was incubated for 30 min at 22° C. in the presence of different concentrations of test compounds in 5 μl assay buffer [50 mM Hepes/NaOH pH 7.0, 1 mM MgCl2, 5 mM MnCl2, 1.0 mM dithiothreitol, 0.1 mM sodium ortho-vanadate, 10 μM adenosine-tri-phosphate (ATP), 1.3 μg/ml substrate, 0.001% (v/v) Nonidet-P40 (Sigma), 1% (v/v) dimethylsulfoxide]. The concentration of c-kit was adjusted depending of the activity of the enzyme lot and was chosen appropriate to have the assay in the linear range. The reaction was stopped by the addition of 5 μl of a solution of HTRF detection reagents (0.1 μM streptavidine-XLent and 1 nM PT66-Eu-Chelate, an europium-chelate labelled anti-phospho-tyrosine antibody from Perkin Elmer) in an aqueous EDTA-solution (80 mM EDTA, 0.2% (w/v) bovine serum albumin in 50 mM HEPES/NaOH pH 7.0).
(§1) The resulting mixture was incubated 1 h at 22° C. to allow the binding of the biotinylated phosphorylated peptide to the streptavidine-XLent and the PT66-Eu-Chelate. Subsequently the amount of phosphorylated substrate was evaluated by measurement of the resonance energy transfer from the PT66-Eu-Chelate to the streptavidine-XLent. Therefore, the fluorescence emissions at 620 nm and 665 nm after excitation at 350 nm was measured in a HTRF reader, e.g. a Rubystar (BMG Labtechnologies, Offenburg, Germany) or a Viewlux (Perkin-Elmer). The ratio of the emissions at 665 nm and at 622 nm was taken as the measure for the amount of phosphorylated substrate.

Tie2 [2] = target: T1, Tie2; experiment: Tie-2-Kinase HTRF-Assay without kinase preactivation (assay 2); type: biochemical; parameters: A recombinant fusion protein of GST and the intracellular domains of Tie-2; GST; made in house; host or cells: insect cells (Hi-5); conditions: GST-Tie-2 intracellular domains, no preactivation, 10 μM ATP
Source text: Assay 2: Tie-2-Kinase HTRF-Assay without Kinase Preactivation
Tie2-inhibitory activity of compounds of the present invention was quantified employing two Tie2 HTRF assay as described in the following paragraphs.
A recombinant fusion protein of GST and the intracellular domains of Tie-2, expressed in insect cells (Hi-5) and purified by Glutathion-Sepharose affinity chromatography was used as kinase. Alternatively, commercially available GST-Tie2-fusion protein (Upstate Biotechnology, Dundee, Scotland) can be used As substrate for the kinase reaction the biotinylated peptide biotin-Ahx-[…] (C-terminus in amid form) was used which can be purchased e.g. from the company Biosynthan GmbH (Berlin-Buch, Germany). Detection of phosphorylated product is achieved specifically by a trimeric detection complex consisting of the phosphorylated substrate, streptavidin-XLent (SA-XLent) which binds to biotin, and Europium Cryptate-labeled anti-phosphotyrosine antibody PT66 which binds to phosphorylated tyrosine.
The reaction was stopped by the addition of 5 μl of an aqueous buffer (25 mM Hepes/NaOH pH 7.5, 0.28% (w/v) bovine serum albumin) containing EDTA (90 mM) and the HTRF (Homogeneous Time Resolved Fluorescence) detection reagents streptavidine-XLent (0.2 μM, from Cis Biointernational, Marcoule, France) and PT66-Eu-Chelate (0.3 ng/μl; a europium-chelate labelled anti-phospho-tyrosine antibody from Perkin Elmer).
as §1, with “substrate peptide” for “substrate”, “substrate peptide.” for “substrate.”
Target sequence in this assay (Q02763 770-1124 limits assumed): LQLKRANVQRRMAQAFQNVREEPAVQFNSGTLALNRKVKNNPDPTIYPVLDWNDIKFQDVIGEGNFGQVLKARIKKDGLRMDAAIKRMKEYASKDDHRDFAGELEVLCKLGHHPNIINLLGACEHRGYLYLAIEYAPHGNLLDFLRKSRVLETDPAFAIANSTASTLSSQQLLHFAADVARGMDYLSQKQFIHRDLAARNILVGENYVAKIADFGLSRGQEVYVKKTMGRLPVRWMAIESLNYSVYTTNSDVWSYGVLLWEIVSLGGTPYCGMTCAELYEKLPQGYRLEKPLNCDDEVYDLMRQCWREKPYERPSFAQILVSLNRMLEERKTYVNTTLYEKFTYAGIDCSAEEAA

Tie2 vs. KDR [3] = conditions: Albert et al. Mol. Cancer. Ther. 2006, 5, 995; cited from earlier work
Tie2 vs. KDR [4] = conditions: Albert et al. Mol. Cancer. Ther. 2006, 5, 995; cited from earlier work; remark: listed apart in the source

T2 sequence (P10721 589-937 limits assumed): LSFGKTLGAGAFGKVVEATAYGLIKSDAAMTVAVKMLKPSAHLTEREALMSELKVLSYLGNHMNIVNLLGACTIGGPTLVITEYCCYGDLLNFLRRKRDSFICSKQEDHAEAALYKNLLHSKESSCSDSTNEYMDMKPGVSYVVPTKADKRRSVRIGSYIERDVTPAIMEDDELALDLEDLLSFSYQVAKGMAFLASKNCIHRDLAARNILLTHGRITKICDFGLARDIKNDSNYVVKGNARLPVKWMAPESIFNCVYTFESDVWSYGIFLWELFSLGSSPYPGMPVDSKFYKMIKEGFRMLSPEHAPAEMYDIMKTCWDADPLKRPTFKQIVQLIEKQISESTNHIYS

SMILES | pIC50 (Tie2 [1]) | pIC50 (human c-kit) | Selectivity vs. cKit (human c-kit) | pIC50 (Tie2 [2]) | times less active against Tie2 vs. KDR in enzymatic assays (Tie2 vs. KDR [3]) [times] | times less active against Tie2 than KDR in cellular assays (Tie2 vs. KDR [4]) [times]
Cn1nc(N)c2c(-c3ccc(NC(=O)Nc4cccc(C(F)(F)F)c4)cc3)cc(C3(C(N)=O)CC3)nc21 [Example 2.1, 1-(3-Amino-1-methyl-4-{4-[3-(3-trifluoromethyl-phenyl)-ureido]-phenyl}-1H-pyrazolo[3,4-b]pyridin-6-yl)-cyclopropanecarboxylic acid amide] | ≥ 7.00 | 6.00 to 7.00 | 6 | ≥ 7.00 |  | 
Cc1ccc(F)c(NC(=O)Nc2ccc(-c3cc(C4(C(=O)N5CCCC5)CC4)nc4c3c(N)nn4C)cc2)c1 [Example 4.3] | ≥ 7.00 | 5.00 to 6.00 | >100 | ≥ 7.00 |  | 
Cc1ccc(F)c(NC(=O)Nc2ccc(-c3cc(C4(C(=O)N(C)C)CC4)nc4c3c(N)nn4C)cc2)c1 [Example 4.4, 1-(3-Amino-4-{4-[3-(2-fluoro-5-methyl-phenyl)-ureido]-phenyl}-1-methyl-1H-pyrazolo[3,4-b]pyridin-6-yl)-cyclopropanecarboxylic acid dimethylamide] | ≥ 7.00 | 5.00 to 6.00 | 15 | ≥ 7.00 |  | 
Cn1nc(N)c2c(-c3ccc(NC(=O)Nc4cccc(C(F)(F)F)c4)cc3)cc(C3CCC3)nc21 [Example 6.1, 1-[4-(3-Amino-6-cyclobutyl-1-methyl-1H-pyrazolo[3,4-b]pyridin-4-yl)-phenyl]-3-(3-trifluoromethyl-phenyl)-urea] | ≥ 7.00 | 5.00 to 6.00 | 20 | ≥ 7.00 |  | 
Cn1nc(N)c2c(-c3ccc(NC(=O)Nc4cccc(C(F)(F)F)c4)cc3)cc(C3CCCCC3)nc21 [Example 7.1, 1-[4-(3-Amino-6-cyclohexyl-1-methyl-1H-pyrazolo[3,4-b]pyridin-4-yl)-phenyl]-3-(3-trifluoromethyl-phenyl)-urea] | ≥ 7.00 | 6.00 to 7.00 | 9 | ≥ 7.00 |  | 
COC(=O)C[C@@H]1C[C@H](c2cc(-c3ccc(NC(=O)Nc4cccc(C(F)(F)F)c4)cc3)c3c(N)nn(C)c3n2)C1(C)C [Example 8.2, [3-(3-Amino-1-methyl-4-{4-[3-(3-trifluoromethyl-phenyl)-ureido]-phenyl}-1H-pyrazolo[3,4-b]pyridin-6-yl)-2,2-dimethyl-cyclobutyl]-acetic acid methyl ester] | ≥ 7.00 | 5.00 to 6.00 | 30 | ≥ 7.00 |  | 
Cc1ccc(F)c(NC(=O)Nc2ccc(-c3cccc4[nH]nc(N)c34)cc2)c1 [PA1, 1-[4-(3-Amino-1H-indazol-4-yl)-phenyl]-3-(2-fluoro-5-methyl-phenyl)-urea] |  |  |  |  | ~40 | ~1000
Nc1n[nH]c2nccc(-c3ccc(NC(=O)Nc4cccc(C(F)(F)F)c4)cc3)c12 [PA2, 1-[4-(3-Amino-1H-pyrazolo[3,4-b]pyridin-4-yl)-phenyl]-3-(3-trifluoromethyl-phenyl)-urea, reference compound] | ≥ 7.00 | ≥ 7.00 | 0.67 | ≥ 7.00 |  | 
Cc1ccc(F)c(NC(=O)Nc2ccc(-c3ccnc4[nH]nc(N)c34)cc2)c1 [PA3, 1-[4-(3-Amino-1H-pyrazolo[3,4-b]pyridin-4-yl)-phenyl]-3-(2-fluoro-5-methyl-phenyl)-urea, reference compound] | 6.00 to 7.00 | ≥ 7.00 | 0.26 | ≥ 7.00 |  | 
Cn1nc(N)c2c(-c3ccc(NC(=O)Nc4cccc(C(F)(F)F)c4)cc3)ccnc21 [PA4, 1-[4-(3-Amino-1-methyl-1H-pyrazolo[3,4-b]pyridin-4-yl)-phenyl]-3-(3-trifluoromethyl-phenyl)-urea, reference compound] | ≥ 7.00 | 6.00 to 7.00 | 1.6 | ≥ 7.00 |  | 
Cc1ccc(F)c(NC(=O)Nc2ccc(-c3ccnc4c3c(N)nn4C)cc2)c1 [PA5, 1-[4-(3-Amino-1-methyl-1H-pyrazolo[3,4-b]pyridin-4-yl)-phenyl]-3-(2-fluoro-5-methyl-phenyl)-urea, reference compound] | ≥ 7.00 | ≥ 7.00 | 0.5 | 6.00 to 7.00 |  | 
Cn1nc(N)c2c(-c3ccc(NC(=O)Nc4ccccc4)cc3)ccnc21 [PA6, 1-[4-(3-Amino-1-methyl-1H-pyrazolo[3,4-b]pyridin-4-yl)-phenyl]-3-phenyl-urea, reference compound] | 5.00 to 6.00 | ≥ 7.00 | 0.06 | 5.00 to 6.00 |  | 
